Laboratory results published in patent US10899793B2, “Melanocortin ligands and methods of use thereof” (priority 2016, dated 2021).
Read-outs that look alike come from different tables or passages of the source. Square brackets hold non-standard residues; d marks the D form. Peptide text beside a SMILES is read from it. dPhe(4-I) = N[C@H](Cc1ccc(I)cc1)C(=O)O; d2Nal = N[C@H](Cc1ccc2ccccc2c1)C(=O)O; Bta = N[C@@H](Cc1csc2ccccc12)C(=O)O; Tic = O=C(O)[C@@H]1Cc2ccccc2CN1; Nle = CCCC[C@H](N)C(=O)O

Legend:
mMC3R [1] = target: T1, mMC3R (Mus musculus, UniProt P33033); assay: 125I-NDP-MSH competitive binding assay at mMC3R; parameters: expressed in transfected cells; details: for mMC3R (IC50) Fold Diff.: Table 3, vs Ac-His-DPhe-Arg-Trp-NH2, negative = more potent than control
Procedure: A typical experiment utilized a 12-well format. […] Pharm. Des.
The plates were incubated at 37° C. with 5% CO2 for 1 hour. Post incubation, the media was aspirated, each well was washed with 500 μL assay media, and cells were lysed with 500 μL of 0.1 M NaOH and 500 μL of 1% Triton x-100.
Following a 10-15 minute room temperature incubation, the cell lysate mixture was transferred to 12×75 mm polystyrene tubes and the radioactivity was quantified using a WIZARD^2 Automatic Gamma Counter (Perkin-Elmer). […] GraphPad, Inc), and dose-response curves in addition to the corresponding IC50 values were calculated by a non-linear regression method. Each reported value represents the mean and standard error of the mean (SEM) of, at least, two independent experiments each containing two experimental replicates.
Note each reported value represents the mean and standard error of the mean (SEM) of at least two independent experiments containing two experimental replicates.

mMC4R [2] = target: T2, mMC4R (Mus musculus, UniProt P56450); assay: AlphaScreen cAMP agonist assay at mMC4R; details: for activation at 100 µM: read-out: mMC4R Agonist, percent of the NDP-MSH maximal positive control
mMC3R [3] = target: T1, mMC3R; details: Schild analysis; for mMC3R Antagonist pA2 ± SEM: Table 1, pA2 = -Log(Ki), Full Agonist = full dose-response, No Activity = no shift in EC50; for mMC3R pA2: Table 5
mMC4R [4] = target: T2, mMC4R; assay: 125I-NDP-MSH competitive binding assay at mMC4R; details: Table 3; vs Ac-His-DPhe-Arg-Trp-NH2; negative = more potent than control
mMC5R = mMC5R (Mus musculus, UniProt P41149); assay: AlphaScreen cAMP agonist assay at mMC5R
mMC4R [5] = target: T2, mMC4R; details: Schild analysis; for mMC4R pA2: Table 5
mMC1R = mMC1R (Mus musculus, UniProt Q01727); assay: AlphaScreen cAMP agonist assay at mMC1R
mMC3R [6] = target: T1, mMC3R; assay: AlphaScreen cAMP agonist assay at mMC3R
mMC3R [7] = target: T1, mMC3R; parameters: expressed in transfected cells; details: Joseph et al. 2003; read-out: reported stimulation potency at the mMC3R; cited from earlier work
mMC4R [8] = target: T2, mMC4R; parameters: expressed in transfected cells; details: Joseph et al. 2003; read-out: reported stimulation potency at the mMC4R; cited from earlier work

Chain of mMC5R (P41149 whole entry): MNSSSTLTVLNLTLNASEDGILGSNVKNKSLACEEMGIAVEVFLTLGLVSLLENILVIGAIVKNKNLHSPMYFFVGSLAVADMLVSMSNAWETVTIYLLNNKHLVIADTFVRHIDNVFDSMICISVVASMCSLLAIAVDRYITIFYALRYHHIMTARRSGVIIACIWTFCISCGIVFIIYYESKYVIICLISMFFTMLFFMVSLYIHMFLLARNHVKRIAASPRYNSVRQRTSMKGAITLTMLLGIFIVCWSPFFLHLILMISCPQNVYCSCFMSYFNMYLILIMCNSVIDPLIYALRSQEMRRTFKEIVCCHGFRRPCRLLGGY
T1 sequence (P33033 whole entry): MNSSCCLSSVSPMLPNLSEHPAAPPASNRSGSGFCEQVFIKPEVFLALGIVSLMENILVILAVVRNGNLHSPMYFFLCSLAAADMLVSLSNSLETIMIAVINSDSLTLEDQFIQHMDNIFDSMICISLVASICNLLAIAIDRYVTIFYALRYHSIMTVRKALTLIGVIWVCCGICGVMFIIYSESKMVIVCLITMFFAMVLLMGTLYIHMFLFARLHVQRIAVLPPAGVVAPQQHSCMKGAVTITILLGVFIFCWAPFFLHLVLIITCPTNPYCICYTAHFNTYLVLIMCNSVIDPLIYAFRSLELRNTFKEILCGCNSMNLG
Chain of mMC1R (Q01727 whole entry): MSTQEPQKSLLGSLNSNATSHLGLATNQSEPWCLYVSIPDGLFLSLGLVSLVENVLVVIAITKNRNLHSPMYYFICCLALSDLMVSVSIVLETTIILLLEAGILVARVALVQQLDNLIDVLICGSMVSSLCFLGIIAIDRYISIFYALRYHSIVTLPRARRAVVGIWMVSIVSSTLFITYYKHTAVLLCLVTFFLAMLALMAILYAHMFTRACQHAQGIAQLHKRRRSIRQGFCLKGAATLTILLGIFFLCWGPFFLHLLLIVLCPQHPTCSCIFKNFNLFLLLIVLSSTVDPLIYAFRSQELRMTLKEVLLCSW
T2 sequence (P56450 whole entry): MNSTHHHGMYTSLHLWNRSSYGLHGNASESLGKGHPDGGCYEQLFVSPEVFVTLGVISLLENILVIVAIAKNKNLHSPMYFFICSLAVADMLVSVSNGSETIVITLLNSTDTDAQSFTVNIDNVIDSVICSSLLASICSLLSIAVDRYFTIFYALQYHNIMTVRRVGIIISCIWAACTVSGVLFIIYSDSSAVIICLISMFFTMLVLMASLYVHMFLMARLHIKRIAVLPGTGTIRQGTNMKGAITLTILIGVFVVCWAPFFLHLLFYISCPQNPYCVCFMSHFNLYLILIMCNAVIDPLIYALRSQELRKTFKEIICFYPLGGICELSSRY

CC(=O)N[C@@H](CCCNC(=N)N)C(=O)N[C@@H](CCCNC(=N)N)C(=O)N[C@H](Cc1ccc(I)cc1)C(=O)N[C@@H](Cc1csc2ccccc12)C(N)=O [SKY4-48-10, Ac-Arg-Arg-(pI)DPhe-3Bal-NH2]
mMC3R (IC50) Fold Diff. (mMC3R [1]): -52 | activation at 100 µM (mMC4R [2]): 24% | mMC3R Antagonist pA2 ± SEM (mMC3R [3]): Full Agonist | mMC4R (IC50) Fold Diff. (mMC4R [4]): 1

CC(=O)N[C@@H](Cc1c[nH]cn1)C(=O)N[C@@H](CCCNC(=N)N)C(=O)N[C@H](Cc1ccc(I)cc1)C(=O)N[C@@H](Cc1csc2ccccc12)C(N)=O [SKY4-48-11, Ac-His-Arg-(pI)DPhe-3Bal-NH2] (Ac-HR[dPhe(4-I)][Bta]-NH2)
mMC3R (IC50) Fold Diff. (mMC3R [1]): -15 | activation at 100 µM (mMC4R [2]): 47% | mMC3R Antagonist pA2 ± SEM (mMC3R [3]): Full Agonist | mMC4R (IC50) Fold Diff. (mMC4R [4]): 2

CC(=O)N[C@@H](Cc1ccccc1)C(=O)N[C@@H](CCCNC(=N)N)C(=O)N[C@H](Cc1ccc(I)cc1)C(=O)N[C@@H](Cc1csc2ccccc12)C(N)=O [SKY4-48-15, Ac-Phe-Arg-(pI)DPhe-3Bal-NH2] (Ac-FR[dPhe(4-I)][Bta]-NH2)
fold improvement of binding IC50 at the mMC3R compared to SKY4-48-1 (mMC3R [1]): 9 fold | mMC3R (IC50) Fold Diff. (mMC3R [1]): -9 | mMC3R Antagonist pA2 ± SEM (mMC3R [3]): Full Agonist | mMC4R (IC50) Fold Diff. (mMC4R [4]): 7

CC(=O)N[C@@H](Cc1ccccc1)C(=O)N[C@@H](CCCNC(=N)N)C(=O)N[C@H](Cc1ccc(I)cc1)C(=O)N1Cc2ccccc2C[C@H]1C(N)=O [SKY4-48-23, Ac-Phe-Arg-(pI)DPhe-Tic-NH2] (Ac-FR[dPhe(4-I)][Tic]-NH2)
mMC3R (IC50) Fold Diff. (mMC3R [1]): -20 | mMC3R Antagonist pA2 ± SEM (mMC3R [3]): Full Agonist | mMC4R (IC50) Fold Diff. (mMC4R [4]): 1

CC(=O)N[C@@H](CCCNC(=N)N)C(=O)N[C@@H](CCCNC(=N)N)C(=O)N[C@H](Cc1ccc(I)cc1)C(=O)N[C@@H](Cc1ccccc1)C(N)=O [SKY4-48-26, Ac-Arg-Arg-(pI)DPhe-Phe-NH2]
mMC3R (IC50) Fold Diff. (mMC3R [1]): -8 | mMC3R Antagonist pA2 ± SEM (mMC3R [3]): Full Agonist | mMC4R (IC50) Fold Diff. (mMC4R [4]): 4

CC(=O)N[C@H](Cc1c[nH]c2ccccc12)C(=O)N[C@H](CCCNC(=N)N)C(=O)N[C@@H](Cc1ccccc1)C(=O)N[C@H](Cc1c[nH]cn1)C(N)=O [SKY5-121, Ac-DTrp-DArg-Phe-DHis-NH2] (Ac-[dW][dR]F[dH]-NH2)
mMC5R percent of the NDP-MSH maximal positive control (mMC5R; Table 5, @ 100 μM): 29% @ 100 μM | mMC4R pA2 (mMC4R [5]): pA2 = No Activity | EC50 (mMC4R [2]): > 100 µM | EC50 (mMC1R): > 100 µM | mMC3R pA2 (mMC3R [3]): pA2 = No Activity | EC50 (mMC3R [6]): > 100 µM

CC(=O)N[C@@H](Cc1c[nH]cn1)C(=O)N[C@@H](CCCNC(=N)N)C(=O)N[C@H](Cc1ccccc1)C(=O)N[C@@H](Cc1c[nH]c2ccccc12)C(N)=O [SKY5-146-6, Ac-His-Arg-DPhe-Trp-NH2] (Ac-HR[dF]W-NH2)
EC50 (mMC5R): 21 µM | agonist activity at the mMC5R in words (mMC5R; up to 100 μM): micromolar agonists | mMC4R pA2 (mMC4R [5]): pA2 = No Activity | EC50 (mMC4R [2]): > 100 µM | agonist activity at the mMC4R in words (mMC4R [2]; up to 100 μM): no agonist activity | EC50 (mMC1R): 1.3 µM | agonist / inverse agonist activity at the mMC1R in words (mMC1R; up to 100 μM): micromolar agonists | mMC3R pA2 (mMC3R [3]): Full Agonist | EC50 (mMC3R [6]): 21 µM | agonist activity at the mMC3R in words (mMC3R [6]; up to 100 μM): micromolar agonists

CC(=O)N[C@H](Cc1ccc2ccccc2c1)C(=O)N[C@@H](CCCNC(=N)N)C(=O)N[C@H](Cc1ccc(I)cc1)C(=O)N1Cc2ccccc2C[C@H]1C(N)=O [SKY6-24-3, Ac-DNal(2′)-Arg-(pI)DPhe-Tic-NH2] (Ac-[d2Nal]R[dPhe(4-I)][Tic]-NH2)
IC50 (mMC3R [1]): 0.44 µM | fold improvement of binding IC50 at the mMC3R compared to SKY4-48-1 (mMC3R [1]): 120 fold | mMC3R (IC50) Fold Diff. (mMC3R [1]): -120 | activation at 100 µM (mMC4R [2]): 32% | mMC3R Antagonist pA2 ± SEM (mMC3R [3]): Full Agonist | mMC4R (IC50) Fold Diff. (mMC4R [4]): -3

Ac-3Bal-Arg-(pI)DPhe-DNal(2′)-NH2 (Ac-[Bta]R[dPhe(4-I)][d2Nal]-NH2) [SKY4-48-45]
percent of the NDP-MSH maximal positive control, Table 2 (mMC5R; Table 2, @ 100 μM): 41% @ 100 μM | mMC4R Antagonist pA2 ± SEM (mMC4R [5]; Table 1, pA2 = -Log(Ki)): No Activity | mMC4R Agonist, percent of the NDP-MSH maximal positive control (mMC4R [2]; Table 1, @ 100 μM): 38% @ 100 μM | mMC1R percent of the NDP-MSH maximal positive control (mMC1R; Table 2, @ 100 μM): 36% @ 100 μM | mMC3R Antagonist pA2 ± SEM (mMC3R [3]): No Activity | mMC3R Agonist, percent of the NDP-MSH maximal positive control (mMC3R [6]; Table 1, @ 100 μM): 34% @ 100 μM

Ac-Ser-Tyr-Ser-Nle-Glu-His-Arg-Phe-Phe-Gly-Lys-Pro-Val-NH2 (Ac-SYS[Nle]EHRFFGKPV-NH2; SMILES CCCC[C@H](NC(=O)[C@H](CO)NC(=O)[C@H](Cc1ccc(O)cc1)NC(=O)[C@H](CO)NC(C)=O)C(=O)N[C@@H](CCC(=O)O)C(=O)N[C@@H](Cc1c[nH]cn1)C(=O)N[C@@H](CCCNC(=N)N)C(=O)N[C@@H](Cc1ccccc1)C(=O)N[C@@H](Cc1ccccc1)C(=O)NCC(=O)N[C@@H](CCCCN)C(=O)N1CCC[C@H]1C(=O)N[C@H](C(N)=O)C(C)C) [chimeric NDP-MSH/AGRP peptide]
EC50 (mMC3R [7]): 0.48 µM | EC50 (mMC4R [8]): 0.93 µM
